Experimental data as given in US7585895B2, “Therapeutic substituted cyclopentanes” (Allergan, Inc., priority 2005, dated 2009).

Tests used:
hEP2/Gqs5 = target: T1, hEP2/Gqs5 (Homo sapiens, UniProt P43116); assay: FLIPR calcium signal, EP2; assay type: cell-based; settings: HEK-293(EBNA), value outside parentheses, read-out: Ca2+ Signal-EC50 (nM) EP2
T1 construct: expressed in transfected cells
Experimental: (§1) HEK-293(EBNA) cells, stably expressing one type or subtype of recombinant human prostaglandin receptors (prostaglandin receptors expressed: hDP/Gqs5; hEP1; hEP2/Gqs5; hEP3A/Gqi5; hEP4/Gqs5; hFP; hIP; hTP), were cultured in 100 mm culture dishes in high-glucose DMEM medium containing 10% fetal bovine serum, 2 mM 1-glutamine, 250 μg/ml geneticin (G418) and 200 μg/ml hygromycin B as selection markers, and 100 units/ml penicillin G, 100 μg/ml streptomycin and 0.25 μg/ml amphotericin B.
(§2) Cells were seeded at a density of 5×10^4 cells per well in Biocoat® Poly-D-lysine-coated black-wall, clear-bottom 96-well plates (Becton-Dickinson) and allowed to attach overnight in an incubator at 37° C. Cells were then washed two times with HBSS-HEPES buffer (Hanks Balanced Salt Solution without bicarbonate and phenol red, 20 mM HEPES, pH 7.4) using a Denley Cellwash plate washer (Labsystems). After 45 minutes of dye-loading in the dark, using the calcium-sensitive dye Fluo-4 AM at a final concentration of 2 μM, plates were washed four times with HBSS-HEPES buffer to remove excess dye leaving 100 μl in each well. Plates were re-equilibrated to 37° C. for a few minutes.
(§3) Cells were excited with an Argon laser at 488 nm, and emission was measured through a 510-570 nm bandwidth emission filter (FLIPR™, Molecular Devices, Sunnyvale, Calif.). Drug solution was added in a 50 μl volume to each well to give the desired final concentration. The peak increase in fluorescence intensity was recorded for each well. On each plate, four wells each served as negative (HBSS-HEPES buffer) and positive controls (standard agonists: BW245C (hDP); PGE2 (HEP1; hEP2/Gqs5; hEP3A/Gqi5; hEP4/Gqs5); PGF2α (hFP); carbacyclin (hIP); U-46619 (hTP), depending on receptor). The peak fluorescence change in each drug-containing well was then expressed relative to the controls.
(§4) Compounds were tested in a high-throughput (HTS) or concentration-response (CoRe) format. In the HTS format, forty-four compounds per plate were examined in duplicates at a concentration of 10^−5 M. To generate concentration-response curves, four compounds per plate were tested in duplicates in a concentration range between 10^−5 and 10^−11 M. The duplicate values were averaged. In either, HTS or CoRe format each compound was tested on at least 3 separate plates using cells from different passages to give an n≧3.

hEP4/Gqs5 = target: T2, hEP4/Gqs5 (Homo sapiens, UniProt P35408); assay: FLIPR calcium signal, EP4; assay type: cell-based; settings: HEK-293(EBNA)
T2 construct: expressed in transfected cells
T2 sequence (P35408 whole entry): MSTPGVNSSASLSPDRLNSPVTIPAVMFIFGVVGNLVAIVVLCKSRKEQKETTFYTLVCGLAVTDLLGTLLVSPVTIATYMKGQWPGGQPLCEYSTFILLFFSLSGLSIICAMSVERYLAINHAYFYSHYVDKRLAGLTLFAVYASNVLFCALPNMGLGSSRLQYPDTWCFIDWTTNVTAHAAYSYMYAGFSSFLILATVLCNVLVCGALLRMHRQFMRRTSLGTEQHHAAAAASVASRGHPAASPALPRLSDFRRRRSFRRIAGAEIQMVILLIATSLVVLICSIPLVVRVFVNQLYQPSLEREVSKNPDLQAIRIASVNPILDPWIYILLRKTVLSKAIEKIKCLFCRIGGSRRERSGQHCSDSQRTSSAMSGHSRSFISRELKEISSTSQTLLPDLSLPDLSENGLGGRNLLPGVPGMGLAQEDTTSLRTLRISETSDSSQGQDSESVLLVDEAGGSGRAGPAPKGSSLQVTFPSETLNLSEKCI
Experimental: as §1, §2, §3, §4

hEP3A/Gqi5 = target: T3, hEP3A/Gqi5 (Homo sapiens, UniProt P43115); assay: FLIPR calcium signal, EP3; assay type: cell-based; settings: HEK-293(EBNA)
T3 construct: expressed in transfected cells
T3 sequence (P43115 1-390): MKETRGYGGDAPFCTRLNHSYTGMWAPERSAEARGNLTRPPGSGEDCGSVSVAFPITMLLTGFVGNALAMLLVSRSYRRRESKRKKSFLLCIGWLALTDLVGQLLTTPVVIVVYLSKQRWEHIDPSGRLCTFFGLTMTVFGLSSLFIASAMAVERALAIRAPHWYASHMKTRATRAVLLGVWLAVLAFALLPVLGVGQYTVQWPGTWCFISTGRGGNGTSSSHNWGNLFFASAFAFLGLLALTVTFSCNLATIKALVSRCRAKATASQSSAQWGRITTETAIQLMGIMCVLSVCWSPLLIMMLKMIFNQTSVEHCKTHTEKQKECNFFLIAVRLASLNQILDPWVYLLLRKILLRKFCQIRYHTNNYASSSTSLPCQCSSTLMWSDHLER
Experimental: as §1, §2, §3, §4

hFP = target: T4, hFP (Homo sapiens, UniProt P43088); assay: FLIPR calcium signal, FP; assay type: cell-based; settings: HEK-293(EBNA)
T4 construct: expressed in transfected cells
T4 sequence (P43088 whole entry): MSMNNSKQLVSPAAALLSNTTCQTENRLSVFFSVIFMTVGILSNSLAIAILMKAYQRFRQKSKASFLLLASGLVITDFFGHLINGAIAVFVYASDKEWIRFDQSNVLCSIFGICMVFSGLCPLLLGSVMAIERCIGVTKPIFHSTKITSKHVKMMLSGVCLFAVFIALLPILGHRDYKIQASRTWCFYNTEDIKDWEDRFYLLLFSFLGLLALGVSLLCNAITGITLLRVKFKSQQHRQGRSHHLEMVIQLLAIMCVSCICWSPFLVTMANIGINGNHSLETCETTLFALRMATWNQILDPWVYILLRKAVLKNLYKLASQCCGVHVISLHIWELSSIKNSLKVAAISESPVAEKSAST
Experimental: as §1, §2, §3, §4

hEP1 = target: T5, hEP1 (Homo sapiens, UniProt P34995); assay: FLIPR calcium signal, EP1; assay type: cell-based; settings: HEK-293(EBNA)
T5 construct: expressed in transfected cells
T5 sequence (P34995 1-402): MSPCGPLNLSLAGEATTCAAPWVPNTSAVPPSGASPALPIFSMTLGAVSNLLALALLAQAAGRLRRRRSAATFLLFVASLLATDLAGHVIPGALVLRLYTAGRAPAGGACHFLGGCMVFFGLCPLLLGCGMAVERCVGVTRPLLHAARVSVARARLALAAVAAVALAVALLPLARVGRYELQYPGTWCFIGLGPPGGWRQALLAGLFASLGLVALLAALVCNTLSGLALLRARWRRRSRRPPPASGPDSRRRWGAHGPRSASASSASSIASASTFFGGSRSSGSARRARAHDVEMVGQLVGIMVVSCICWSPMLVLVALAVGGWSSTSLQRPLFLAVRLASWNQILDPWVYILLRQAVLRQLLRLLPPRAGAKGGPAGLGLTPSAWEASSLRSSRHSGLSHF
Experimental: as §1, §2, §3, §4

hIP = target: T6, hIP (Homo sapiens, UniProt P43119); assay: FLIPR calcium signal, IP; assay type: cell-based; settings: HEK-293(EBNA)
T6 construct: expressed in transfected cells
T6 sequence (P43119 whole entry): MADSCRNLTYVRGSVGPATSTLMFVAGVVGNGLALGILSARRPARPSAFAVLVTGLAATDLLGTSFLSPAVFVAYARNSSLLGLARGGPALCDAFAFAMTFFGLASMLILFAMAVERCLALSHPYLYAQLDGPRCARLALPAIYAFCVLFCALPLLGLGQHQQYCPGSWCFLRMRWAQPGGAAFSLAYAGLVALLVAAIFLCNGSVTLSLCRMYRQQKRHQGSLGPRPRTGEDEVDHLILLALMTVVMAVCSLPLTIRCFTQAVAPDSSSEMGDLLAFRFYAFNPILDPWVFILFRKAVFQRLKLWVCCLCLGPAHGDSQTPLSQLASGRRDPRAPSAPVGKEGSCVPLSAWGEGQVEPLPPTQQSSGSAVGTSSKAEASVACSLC
Experimental: as §1, §2, §3, §4

hDP/Gqs5 = target: T7, hDP/Gqs5 (Homo sapiens, UniProt Q13258); assay: FLIPR calcium signal, DP; assay type: cell-based; settings: HEK-293(EBNA)
T7 construct: expressed in transfected cells
T7 sequence (Q13258 1-359): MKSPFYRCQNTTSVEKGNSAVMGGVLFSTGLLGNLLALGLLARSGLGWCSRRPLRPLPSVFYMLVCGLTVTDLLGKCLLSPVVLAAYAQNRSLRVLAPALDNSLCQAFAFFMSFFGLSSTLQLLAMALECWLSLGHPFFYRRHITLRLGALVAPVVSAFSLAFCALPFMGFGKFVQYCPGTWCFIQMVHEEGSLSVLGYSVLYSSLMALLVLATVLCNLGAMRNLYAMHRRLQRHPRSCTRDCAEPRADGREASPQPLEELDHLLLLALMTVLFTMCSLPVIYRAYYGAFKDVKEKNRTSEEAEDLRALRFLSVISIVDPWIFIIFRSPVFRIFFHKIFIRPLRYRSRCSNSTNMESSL
Experimental: as §1, §2, §3, §4

hTP = target: T8, hTP (Homo sapiens, UniProt P21731); assay: FLIPR calcium signal, TP; assay type: cell-based; settings: HEK-293(EBNA)
T8 construct: expressed in transfected cells
T8 sequence (P21731 1-343): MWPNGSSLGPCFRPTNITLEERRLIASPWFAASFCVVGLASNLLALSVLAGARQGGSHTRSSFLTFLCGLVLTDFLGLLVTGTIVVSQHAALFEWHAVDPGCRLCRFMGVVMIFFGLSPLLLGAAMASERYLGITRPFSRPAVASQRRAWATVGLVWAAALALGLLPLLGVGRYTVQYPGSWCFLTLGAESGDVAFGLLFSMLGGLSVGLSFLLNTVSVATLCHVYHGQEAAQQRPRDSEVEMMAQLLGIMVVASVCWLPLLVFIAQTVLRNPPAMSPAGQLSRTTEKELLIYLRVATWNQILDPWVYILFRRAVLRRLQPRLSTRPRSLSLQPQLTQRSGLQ
Experimental: as §1, §2, §3, §4

EP4 receptors = target: T9, EP4 receptors (Homo sapiens, UniProt P35408); assay: Radioligand binding, [3H]PGE2, EP4 (Ki); settings: HEK-293 cells stably expressing EP4, [3H]PGE2
T9 construct: expressed in transfected cells; membrane pellet
T9 sequence (P35408 whole entry): as the sequence (P35408 whole entry) above
Experimental: (§5) HEK-293 cells stably expressing the human or feline FP receptor, or EP1, EP2, or EP4 receptors were washed with TME buffer, scraped from the bottom of the flasks, and homogenized for 30 sec using a Brinkman PT 10/35 polytron. TME buffer was added to achieve a final 40 ml volume in the centrifuge tubes (the composition of TME is 100 mM TRIS base, 20 mM MgCl2, […]; 10N HCl is added to achieve a pH of 7.4).
(§6) The cell homogenate was centrifuged at 19000 r.p.m. for 20 min at 4° C using a Beckman Ti-60 rotor. The resultant pellet was resuspended in TME buffer to give a final 1 mg/ml protein concentration, as determined by Biorad assay. Radioligand binding competition assays vs. [^3H-]17-phenyl PGF2α. (5 nM) were performed in a 100 μl volume for 60 min. Binding reactions were started by adding plasma membrane fraction. The reaction was terminated by the addition of 4 ml ice-cold TRIS-HCl buffer and rapid filtration through glass fiber GF/B filters using a Brandel cell harvester. The filters were washed 3 times with ice-cold buffer and oven dried for one hour.
(§7) [^3H-] PGE2 (specific activity 180 Ci mmol) was used as the radioligand for EP receptors. [^3H] 17-phenyl PGF2α, was employed for FP receptor binding studies. Binding studies employing EP1, EP2, EP4 and FP receptors were performed in duplicate in at least three separate experiments. A 200 μl assay volume was used. Incubations were for 60 min at 25° C. and were terminated by the addition of 4 ml of ice-cold 50 mM TRIS-HCl, followed by rapid filtration through Whatman GF/B filters and three additional 4 ml washes in a cell harvester (Brandel). Competition studies were performed using a final concentration of 5 nM [^3H]-PGE2, or 5 nM [^3H] 17-phenyl PGF2αand non-specific binding determined with 10^−5M of unlabeled PGE2, or 17-phenyl PGF2α, according to receptor subtype studied.

EP2 [1] = target: T10, EP2 (Homo sapiens, UniProt P43116); assay: Competition binding, [3H]PGE2, EP2 (Ki); parameters: expressed in transfected cells; membranes or whole cells; settings: HEK 293 cells stably expressing human EP2, [3H]PGE2
T10 sequence (P43116 whole entry): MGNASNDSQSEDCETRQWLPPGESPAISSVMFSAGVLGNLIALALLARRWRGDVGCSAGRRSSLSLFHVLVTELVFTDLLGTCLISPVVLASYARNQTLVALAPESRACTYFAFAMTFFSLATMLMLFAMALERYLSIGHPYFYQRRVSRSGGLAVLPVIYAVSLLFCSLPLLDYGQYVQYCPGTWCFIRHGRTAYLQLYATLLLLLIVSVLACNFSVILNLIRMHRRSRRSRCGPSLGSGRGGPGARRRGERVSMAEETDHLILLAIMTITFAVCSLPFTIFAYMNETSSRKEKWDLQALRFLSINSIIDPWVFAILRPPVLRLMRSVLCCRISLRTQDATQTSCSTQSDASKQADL
Experimental: Competition binding experiments were performed in a medium containing Hank's balanced salt solution, Hepes 20 mM, pH 7.3, membranes (˜60 μg protein) or 2×10^5 cells from HEK 293 cells stably expressing human EP2 receptors, [^3H]PGE2 (10 nM) and various concentrations of test compounds in a total volume of 300 μl. Reaction mixtures were incubated at 23° C. for 60 min, and were filtered over Whatman GF/B filters under vacuum. Filters were washed three times with 5 ml ice-cold buffer containing 50 mM Tris/HCl (pH 7.3). Non-specific binding was estimated in the presence of excess unlabeled PGE2 (10 μM). Binding data fitted to the binding model for a single class of binding sites, using nonlinear regression analysis. IC50 values thus obtained were converted to Ki using the equation of Ki=(IC50/(1+[L]/KD) where [L] represents PGE2 concentration (10 nM) and KD the dissociation constant for [^3H]PGE2 at human EP2 receptors (40 nM).
as §5, §6, §7

EP2 [2] = target: T10, EP2; assay: cAMP assay, HEK-EBNA cells expressing EP2; assay type: cell-based; parameters: expressed in transfected cells; host or cells: HEK-EBNA; settings: value in parentheses in EP2 column, read-out: EP2 EC50 (nM), measurement of cAMP (data in parentheses)
Experimental: A 384-well drug plate was prepared to contain 6 test compounds, PGE2 and cAMP in 16 serial dilutions in triplicate, using a Biomek station. HEK-EBNA cells expressing a target PG receptor subtype (EP2 or EP4) were suspended in a stimulation buffer (HBSS, 0.1% BSA, 0.5 mM IBMX and 5 mM HEPES, pH 7.4) in a density of 10^4 cells/5 μl. The reaction was initiated by mixing 5 μL drug dilutions with 5 μl of HEK-EBNA cells in a well, carried out for 30 min at room temperature, and followed by the addition of 5 μl anti-cAMP acceptor beads in the control buffer with Tween-20 (25 mM NaCl, 0.03% Tween-20, 5 mM HEPES, pH7.4). After 30 min in the dark at room temperature, the mixtures were incubated with 15 μl biotinylated-cAMP/strepavidin donor beads in Lysis/Detection buffer (0.1% BSA, 0.3% Tween-20 and 5 mM HEPES, pH7.4) for 45 min at the room temperature. Fluorescence changes were read using a Fusion-alpha HT microplate reader.

T1 sequence (P43116 whole entry): as above

SMILES: CCCCCC(O)c1ccc([C@@H]2[C@@H](C/C=C\CCCC(=O)OC)[C@H](Cl)C[C@H]2O)cc1 (mixture of isomers) [Entry 10, (Z)-7-{(1R,2S,3R,5R)-5-Chloro-3-hydroxy-2-[4-(1-hydroxy-hexyl)-phenyl]-cyclopentyl}-hept-5-enoic acid methyl ester]
- EC50 (hEP2/Gqs5): 3960 nM
- Ca2+ Signal-EC50 (nM) EP4 (hEP4/Gqs5): not active
- Ca2+ Signal-EC50 (nM) EP3 (hEP3A/Gqi5): not active
- Ca2+ Signal-EC50 (nM) FP (hFP): not active
- Ca2+ Signal-EC50 (nM) EP1 (hEP1): not active
- Ca2+ Signal-EC50 (nM) IP (hIP): not active
- Ca2+ Signal-EC50 (nM) DP (hDP/Gqs5): not active
- Ca2+ Signal-EC50 (nM) TP (hTP): not active

SMILES: CCCCCC(O)c1ccc([C@@H]2[C@@H](CCCc3cccc(C(=O)O)c3)[C@H](Cl)C[C@H]2O)cc1 (stereo partly drawn) [Entry 1, 3-(3-{(1R,2S,3R,5R)-5-Chloro-3-hydroxy-2-[4-(1-hydroxy-hexyl)-phenyl]-cyclopentyl}-propyl)-benzoic acid]
- EC50 (hEP2/Gqs5): 2450 nM
- Ca2+ Signal-EC50 (nM) EP4 (hEP4/Gqs5): not active
- EC50 (hEP3A/Gqi5; read-out: Ca2+ Signal-EC50 (nM) EP3): 4150 nM
- Ca2+ Signal-EC50 (nM) FP (hFP): not active
- EC50 (hEP1; read-out: Ca2+ Signal-EC50 (nM) EP1): 917 nM
- Ca2+ Signal-EC50 (nM) IP (hIP): not active
- Ca2+ Signal-EC50 (nM) DP (hDP/Gqs5): not active
- Ca2+ Signal-EC50 (nM) TP (hTP): not active

SMILES: CC(C)(C)CCCC(O)c1ccc([C@@H]2[C@@H](C/C=C\CCCC(=O)O)[C@H](Cl)C[C@H]2O)cc1 (stereo partly drawn) [Entry 19, (Z)-7-{(1R,2S,3R,5R)-5-Chloro-3-hydroxy-2-[4-(1-hydroxy-5,5-dimethyl-hexyl)-phenyl]-cyclopentyl}-hept-5-enoic acid]
- Ki (EP4 receptors): 6290 nM
- Ki (EP2 [1]): 1050 nM
- EC50 (hEP2/Gqs5): > 10000 nM
- EC50 (hEP4/Gqs5; read-out: Ca2+ Signal-EC50 (nM) EP4): > 10000 nM
- EC50 (EP2 [2]): 815 nM
